US8962658B2, “Fluoralkylcarbonyl-oxadiazoles” (Universite de Droit et de la Sante de Lille 2, priority 2011, dated 2015)
Values after ≈ are worked out from the molar mass of the structure shown.

Columns and labels:
[1] = system: M. tuberculosis H37Rv-GFP in Raw264.7 macrophages; assay: microbe, parasite or virus in culture; assay type: cell-based; settings: Mycobacterium tuberculosis
[2] = Pharmacokinetic experiments (DMSO formulation); assay type: in vivo, Swiss mice; settings: mice, oral, dose 20 mg/kg, vehicle 100% DMSO
Protocol: Pharmacokinetic experiments (DMSO Formulation). Compounds were administered at 20 mg per kg body weight by oral route to Swiss mice (22-24 g) (WIV-ISP breeding). Three mice per time point were anesthetized with ketamine-xyalzine and bled them at 10 min, 20 min, 30 min, 1 h, 2 h, 3 h and 6 h after administration of a single dose of ligands. Blood was collected from the brachial region on lithium heparinated tubes in order to prevent coagulation.
(§1) Plasma samples preparation. Plasma samples were thawed on ice. Aliquots of 50 μL were precipitated with 450 μL of ice cold acetonitrile containing internal standard (1 μM). The samples were vigorously mixed with a Vortex, centrifuged at 10000 rpm, at 4° C. for 10 min and the supernatants were transferred into Matrix tubes for LC-MS-MS analysis. Spiked standard solutions (10, 50, 100, 500, 1000, 5000, 10000 and 50000 nM) were prepared the same way.

[3] = pH 7.4, PBS
[4] = in vitro; settings: CD-1, mouse, microsomes, pH 7.4
[5] = Pharmacokinetic experiments (aqueous hydroxypropyl-β-cyclodextrin formulation); assay type: in vivo, CD1 female mice; settings: mice, single oral dose 20 mg/kg, vehicle aqueous 100 mM hydroxypropyl-β-cyclodextrin
Protocol: Pharmacokinetic experiments (aqueous hydroxypropyl-β-cyclodextrin Formulation). Compounds solubilized in aqueous hydroxypropyl-β-cyclodextrin solution (100 mM) were administered in single dose (20 mg/kg) to CD1 female mice (25-30 g) (Charles River Laboratories). […] Mice were immediately sacrificed by cervical dislocation. Three mice were dosed per kinetics time point.
as §1

[6] = physchem; settings: pH 7.4, aqueous buffer, kinetic from dmso stock
[7] = RAW264.7, Table 1, […], mean of two experiments

Structure (SMILES) | EC50 ([1]; RAW264.7) | AUC∞ [2] | Solubility [3] | microsomal CLint [4] | EC50 [1, 7] | AUC∞ [5] | solubility at 24 h [6] | microsomal CLint at 1 μM [4]
O=C(CCC(F)(F)F)N1CC[C@@H](c2nc(-c3cccs3)no2)C1 [Compound 2] | 0.4 µM | 100 ng·h/mL | 80 µg/mL (≈ 232 µM) | 4 µL/min/mg | – | – | – | –
O=C(CCC(F)(F)F)N1CCC(c2nc(-c3cccs3)no2)CC1 [Compound 3, 4-4-4-trifluoro-1-[4-(3-thiophen-2-yl-[1,2,4]oxadiazol-5-yl)-piperidin-1-yl]butan-1-one, reference compound] | 0.1 µM | – | 150 µg/mL (≈ 417 µM) | 213 µL/min/mg | 0.1 µM | – | – | –
O=C(CCC(F)(F)F)N1CCC(c2nc(-c3nccs3)no2)CC1 [Compound 5, 4,4,4-Trifluoro-1-[4-(3-thiazol-2-yl-1,2,4-oxadiazol-5-yl)-piperidin-1-yl]-butan-1-one] | ≤ 0.5 µM | 73500 ng·h/mL | 300 µg/mL (≈ 832 µM) | 37 µL/min/mg | 0.5 µM | 100500 ng·h/mL | – | –
COc1ccc2nc(-c3noc(C4CCN(C(=O)CCC(F)(F)F)CC4)n3)sc2c1 [Compound 7, 4,4,4-Trifluoro-1-{4-[3-(6-methoxy-benzothiazol-2-yl)-1,2,4-oxadiazol-5-yl]-piperidin-1-yl}-butan-1-one] | – | – | 6 µg/mL (≈ 13.6 µM) | 197 µL/min/mg | 0.2 µM | – | – | –
O=C(CCC(F)(F)F)N1CCC(c2nc(-c3ccccc3)no2)CC1 [Compound 8, 4,4,4-Trifluoro-1-[4-(3-phenyl-1,2,4-oxadiazol-5-yl)-piperidin-1-yl]-butan-1-one] | ≤ 0.5 µM | – | 40 µg/mL (≈ 113 µM) | – | 0.5 µM | – | – | –
O=C(CCC(F)(F)F)N1CCC(c2nc(C3CCCC3)no2)CC1 [Compound 32, 1-[4-(3-Cyclopentyl-1,2,4-oxadiazol-5-yl)-piperidin-1-yl]-4,4,4-trifluoro-butan-1-one] | – | – | – | – | 0.8 µM | – | – | –
O=C(CCC(F)(F)F)N1CC[C@@H](c2nc(-c3nccs3)no2)C1 [Compound 41, 4,4,4-trifluoro-1-[(3R)-3-[3-(1,3-thiazol-2-yl)-1,2,4-oxadiazol-5-yl]pyrrolidin-1-yl]butan-1-one] | 6.3 µM | – | – | – | – | – | – | –
O=C(CCCC(F)(F)F)N1CCC(c2nc(-c3nccs3)no2)CC1 [Compound 42, 5,5,5-Trifluoro-1-[4-(3-thiazol-2-yl-1,2,4-oxadiazol-5-yl)-piperidin-1-yl]-pentan-1-one] | 0.06 µM | – | 410 µg/mL (≈ 1100 µM) | 15 µL/min/mg | – | 98600 ng·h/mL | – | –
O=C(CCCC(F)(F)F)N1CC[C@@H](c2nc(-c3cccs3)no2)C1 [Compound 43, 5,5,5-trifluoro-1-[(3R)-3-[3-(thiophen-2-yl)-1,2,4-oxadiazol-5-yl]pyrrolidin-1-yl]pentan-1-one] | 0.1 µM | – | – | – | – | – | 237 µg/mL (≈ 659 µM) | 297 µL/min/mg
O=C(CCCC(F)(F)F)N1CCC(c2nc(-c3cccs3)no2)CC1 [Compound 44, 5,5,5-trifluoro-1-{4-[3-(thiophen-2-yl)-1,2,4-oxadiazol-5-yl]piperidin-1-yl}pentan-1-one] | 0.07 µM | – | – | – | – | – | – | –
O=C(CCCC(F)(F)F)N1CCC(c2nc(-c3ccccc3)no2)CC1 [Compound 45, 5,5,5-trifluoro-1-[4-(3-phenyl-1,2,4-oxadiazol-5-yl)piperidin-1-yl]pentan-1-one] | 0.1 µM | – | – | – | – | – | 80 µg/mL (≈ 218 µM) | 73 µL/min/mg
CS(=O)(=O)c1ccc(-c2noc(C3CCN(C(=O)CCCC(F)(F)F)CC3)n2)cc1 [Compound 46, 5,5,5-trifluoro-1-{4-[3-(4-methanesulfonylphenyl)-1,2,4-oxadiazol-5-yl]piperidin-1-yl}pentan-1-one] | 0.02 µM | – | – | – | – | – | 80 µg/mL (≈ 180 µM) | 14 µL/min/mg
